What all share (format): functional
The subject of one test is Escherichia coli. Kind of test: Antibacterial activity against Escherichia coli assessed as reduction in bacterial growth incubated for 20 hrs by broth microdilution assay. In general terms: In broth dilution the organism is exposed to a series of concentrations in liquid medium.
Test [1] relates to Staphylococcus aureus. Kind of test: Antibacterial activity against methicillin resistant Staphylococcus aureus assessed as reduction in bacterial growth incubated for 20 hrs by broth microdilution assay.
The subject of test [2] is Staphylococcus aureus. Briefly: Antibacterial activity against methicillin susceptible Staphylococcus aureus assessed as reduction in bacterial growth incubated for 20 hrs by broth microdilution assay.
Another test has as its system Bacillus subtilis. Briefly: Antibacterial activity against Bacillus subtilis assessed as reduction in bacterial growth incubated for 20 hrs by broth microdilution assay.

≈ marks a conversion by molar mass, not a printed value.

Regarding `C=C(C)[C@@H]1CC[C@](C)(O)[C@H](C2=C(O)C(CC=C(C)C)(CC=C(C)C)C(=O)C(C(=O)CC(C)C)=C2O)C1`, the MIC50 (commonly the lowest concentration that inhibits either 50% of growth or 50% of the strains tested, depending on the study) in the test with Escherichia coli was over 64 µM; in the test with Staphylococcus aureus [1], 2 µM (≈ 0.997 µg/mL); in the test on Staphylococcus aureus [2], 2 µM (≈ 0.997 µg/mL). Further, the results for the MIC in the test with Staphylococcus aureus [2] and in the test on Bacillus subtilis were 1 to 2 µM (≈ 0.499 to 0.997 µg/mL) and 2 µM (≈ 0.997 µg/mL), respectively.
As for `CC(C)=CCC1(CC=C(C)C)C(=O)C(C(=O)CC(C)C)=C(O)C([C@@H]2C=C(C(C)C)CC[C@]2(C)O)=C1O`, the MIC50 in the test on Escherichia coli was over 64 µM; in the test on Staphylococcus aureus [1], 4 µM (≈ 1.99 µg/mL); in the test with Staphylococcus aureus [2], 4 µM (≈ 1.99 µg/mL). The MIC (as a rule, the lowest concentration that inhibits growth of the organism) is 4 to 8 µM (≈ 1.99 to 3.99 µg/mL) in the test with Staphylococcus aureus [1], 4 µM (≈ 1.99 µg/mL) in the test on Staphylococcus aureus [2] and 4 µM (≈ 1.99 µg/mL) with Bacillus subtilis.
On to `CCC(C)C(=O)C1=C(O)C([C@@H]2C=C(C(C)C)CC[C@]2(C)O)=C(O)C(CC=C(C)C)(CC=C(C)C)C1=O` (stereo partly specified), for which the MIC50 is over 64 µM in the test on Escherichia coli, 8 µM (≈ 3.99 µg/mL) in the test on Staphylococcus aureus [1] and 8 µM (≈ 3.99 µg/mL) with Staphylococcus aureus [2]. For the same compound, the MIC is 4 to 8 µM (≈ 1.99 to 3.99 µg/mL) with Staphylococcus aureus [2] and 4 µM (≈ 1.99 µg/mL) with Bacillus subtilis.

For the origin of these results see ChEMBL document CHEMBL4414611, “Hypascyrins A-E, Prenylated Acylphloroglucinols from Hypericum ascyron” (2019).
